Laboratory results: patent US20260355163A1, “TREATMENT OF FASCIOLOSIS” (INTERVET INC., priority 2022, published 2026)
“Also recorded” adds a separate entry of the source. Read-outs that look alike come from different tables or passages of the source.

Assays:
[1] = test system: common liver fluke (Fasciola hepatica); conditions: cited from earlier work; for effectiveness against liver fluke stages: mature flukes and immature stages (early immature 1 to 6 weeks old, immature 6 to 9 weeks old)
[2] = test system: Fasciola hepatica Newly Excysted Juveniles (NEJs); assay: whole organism screen of Fasciola hepatica NEJs: microscopic scoring of phenotype and motility (viability)
Experimental: The effect of test compounds in a whole organism screen of Fasciola hepatica Newly Excysted Juveniles (NEJs) was investigated along with DMSO (− control), triclabendazole (10 μM, + control) and media) and their anti-flukicidal activity was assessed at both 24 and 72 hours.
(§1) The viability detection of Fasciola hepatica NEJs is based on qualitative microscopic evaluation of motility and phenotype and additionally measuring propidium iodide to make use of the differential uptake of fluorophores (such as propidium iodide) by living organisms.
(§2) NEJs were prepared according to Edwards et al.. Approximately 12 NEJs/compound were cultivated. NEJ/compound co-cultures were placed at 37 °C in a humidified atmosphere containing 5% CO2. NEJ/compound co-cultures were incubated for a total of 72 hrs. At 24h, an assessment of the gross phenotype was made for all NEJ/compound co-cultures and bright field images were captured. At 72 h both phenotype and motility were quantified in comparison to live DMSO controls based on a microscopic scoring method detailed in [1] as well as summarised in Table 1 below.

[3] = test system: Fasciola hepatica Newly Excysted Juveniles (NEJs); assay: Propidium Iodide (PI) uptake by Fasciola hepatica NEJs in co-culture with compound
Experimental: as §1, §2
Propidium Iodide (PI) was then added to the NEJ/compound co-cultures (to a final concentration of […]) and these co-cultures were imaged under both Bright field and Texas Red settings.

[4] = 72 h, in comparison to live DMSO controls, triclabendazole + control at 10 μM, concentration of test compounds not given
[5] = overall conclusion from viability, phenotype/motility and PI

Row | Compound | effectiveness against liver fluke stages [1] | Score (mean) motility 1 to 5 (highest) [2, 4] | Score (mean) phenotype 1 to 6 (highest) [2, 4] | active against Fasciola hepatica NEJs during the viability assessment ([2]; after 24 hours) | phenotype change and impaired motility significantly different to DMSO ([2]; after 72 hours) | significant activity against juvenile stages of Fasciola hepatica [2, 5] | also measured
1 | CCCSc1ccc2nc(NC(=O)OC)[nH]c2c1 [albendazole] | only effective against the mature flukes and not against the immature stages; also recorded: effective only against mature flukes |  |  |  |  |  | 
2 | CSc1nc2cc(Cl)c(Oc3cccc(Cl)c3Cl)cc2[nH]1 [Triclabendazole] | effective against mature stages of the common liver fluke (Fasciola hepatica) as well as all immature stages | 5.0 | 5.8 |  |  |  | effectiveness against early immature liver fluke larvae ([1]; early immature larvae (1 to 6 weeks old)): effective against all early immature liver fluke larvae
3 | Cc1cc(C(C#N)c2ccc(Cl)cc2)c(Cl)cc1NC(=O)c1cc(I)cc(I)c1O (centres unmarked) [closantel] | only effective against the mature flukes and not against the immature stages |  |  |  |  |  | effectiveness against 3-8 weeks old flukes ([1]; 3-8 weeks old flukes): partially effective; effectiveness against mature flukes ([1]; mature flukes): fully effective
4 | Nc1cc(C(Cl)=C(Cl)Cl)c(S(N)(=O)=O)cc1S(N)(=O)=O [clorsulon] | effective only against mature flukes |  |  |  |  |  | 
5 | O=C(Nc1cc(Cl)cc(Cl)c1O)c1c(O)c(Cl)cc(Cl)c1Cl [oxyclozanide] | only effective against the mature flukes and not against the immature stages; also recorded: effective only against mature flukes |  |  |  |  |  | 
6 | Cn1nc(C(F)(F)C(F)(F)F)c(C(F)(F)F)c1-n1cc(-c2ccc(Cl)c(C(=O)NC3(C#N)CC3)c2)cn1 [Compound 10, 2-chloro-N-(1-cyanocyclopropyl)-5-[1-[2-methyl-5-(1,1,2,2,2-pentafluoroethyl)-4-(trifluoromethyl)pyrazol-3-yl]pyrazol-4-yl]benzamide] |  | 4.8 | 3.8 | active | both a phenotype change and impaired motility significantly different to DMSO |  | 
7 | CS(=O)(=O)CC(=O)N1CC2(C1)OCc1cc(C3=NO[C@@](c4cc(Cl)c(F)c(Cl)c4)(C(F)(F)F)C3)ccc12 (stereo in doubt) [Compound 5, 1-(5′-(5-(3,5-dichloro-4-fluorophenyl)-5-(trifluoromethyl)-4,5-dihydroisoxazol-3-yl)-3′H-spiro[azetidine-3,1′-isobenzofuran]-1-yl)-2-(methylsulfonyl)ethan-1-one] |  | 5.0 | 5.7 | active | both a phenotype change and impaired motility significantly different to DMSO | significant activity | 
8 | Cc1cc(C2=NO[C@@](c3cc(Cl)cc(Cl)c3)(C(F)(F)F)C2)ccc1C(=O)NCC(=O)NCC(F)(F)F [Compound 2] |  |  |  |  |  |  | Score (mean) motility 1 to 5 (highest) [2]: 5.0; Score (mean) phenotype 1 to 6 (highest) [2]: 5.8; active against Fasciola hepatica NEJs during the viability assessment [2]: active; phenotype change and impaired motility significantly different to DMSO [2]: both a phenotype change and impaired motility significantly different to DMSO; significant activity against juvenile stages of Fasciola hepatica [2]: significant activity; Propidium Iodide positivity [3]: > 90%
9 | O=C(CNC(=O)c1ccc(C2=NOC(c3cc(Cl)cc(C(F)(F)F)c3)(C(F)(F)F)C2)c2ccccc12)NCC(F)(F)F (centres unmarked) [Compound 3, 4-[5-[3-chloro-5-(trifluoromethyl)phenyl]-4,5-dihydro-5-(trifluoromethyl)-3-isoxazolyl]-N-[2-oxo-2-[(2,2,2-trifluoroethyl)amino]ethyl]-1-naphthalene-carboxamide] |  | 5.0 | 5.7 | active | both a phenotype change and impaired motility significantly different to DMSO | significant activity | 
10 | Cc1cc(C2=NO[C@@](c3cc(Cl)c(Cl)c(Cl)c3)(C(F)(F)F)C2)sc1C(=O)NCC(=O)NCC(F)(F)F (stereo in doubt) [Compound 4, 3-methyl-N-(2-oxo-2-((2,2,2-trifluoroethyl)amino)ethyl)-5-[5-(3,4,5-trichlorophenyl)-5-(trifluoromethyl)-4,5-dihydroisoxazol-3-yl]thiophene-2-carboxamide] |  |  |  |  |  |  | Score (mean) motility 1 to 5 (highest) [2]: 5.0; Score (mean) phenotype 1 to 6 (highest) [2]: 5.7; active against Fasciola hepatica NEJs during the viability assessment [2]: active; phenotype change and impaired motility significantly different to DMSO [2]: both a phenotype change and impaired motility significantly different to DMSO; significant activity against juvenile stages of Fasciola hepatica [2]: significant activity; Propidium Iodide positivity [3]: > 90%
11 | C#CCNC(=O)CNC(=O)c1sc(C2=NO[C@](c3cc(Cl)c(Cl)c(Cl)c3)(C(F)(F)F)C2)c2c1CCCC2 [Compound 8] |  | 5.0 | 5.7 | active | both a phenotype change and impaired motility significantly different to DMSO | significant activity | 
12 | Cc1cc(C2=NSC(c3cc(Cl)cc(Cl)c3)(C(F)(F)F)C2)ccc1C(=O)NCC(=O)NCC(F)(F)F (centres unmarked) [Compound 9] |  | 5.0 | 5.7 | active | both a phenotype change and impaired motility significantly different to DMSO | significant activity | 
13 | N#Cc1cc(I)c(O)c([N+](=O)[O-])c1 [nitroxynil] | only effective against the mature flukes and not against the immature stages; also recorded: effective against fluke from 8 weeks post infection |  |  |  |  |  | 
14 | C#CCNC(=O)CNC(=O)c1sc(C2=NO[C@@](c3cc(Cl)c(Cl)c(Cl)c3)(C(F)(F)F)C2)c2c1CCCC2 [Compound 7] |  | 4.8 | 5.7 | active | both a phenotype change and impaired motility significantly different to DMSO | significant activity | 
15 | Cc1cc(C2=NOC(c3cc(Cl)cc(Cl)c3)(C(F)(F)F)C2)ccc1C(=O)NCC(=O)NCC(F)(F)F (centres unmarked) [Compound 1, 4-[5-(3,5-dichlorophenyl)-5-trifluoromethyl-4,5-dihydroisoxazol-3-yl]-2-methyl-N-[(2,2,2-trifluoro-ethylcarbamoyl)-methyl]-benzamide] |  |  |  |  |  |  | Score (mean) motility 1 to 5 (highest) [2]: 5.0; Score (mean) phenotype 1 to 6 (highest) [2]: 5.5; active against Fasciola hepatica NEJs during the viability assessment [2]: active; phenotype change and impaired motility significantly different to DMSO [2]: both a phenotype change and impaired motility significantly different to DMSO; significant activity against juvenile stages of Fasciola hepatica [2]: significant activity
16 | C#CCNC(=O)CNC(=O)c1sc(C2=NO[C@@](c3cc(Cl)c(Cl)c(Cl)c3)(C(F)(F)F)C2)cc1C [Compound 6] |  | 5.0 | 5.6 | active | both a phenotype change and impaired motility significantly different to DMSO | significant activity | 
